The source of these data is patent US10736968B2, “Cellular signalling inhibitors, their formulations and methods thereof” (INVICTUS ONCOLOGY PVT. LTD., priority 2016, dated 2020).

The test concerns 4T1 breast cancer. In words: 4T1 breast cancer model (tumor growth, lung metastatic nodules, survival). The format is in vivo, Balb/c mice. The following applies: for number of metastatic nodules in lungs: lungs harvested on day 12. The source says:
FIG. 7. Effect of BLN101 on breast tumor growth inhibition. To validate the therapeutic efficacy of BLN101 (as AK750 formulation), we randomly sorted mice bearing 4T1 breast cancer into four groups and treated each group with one of the following: blank vehicle (control); AK750; an antiCSF1 antibody, and BLZ945. Treatment was strated when the tumors reached −75 mm^3 in volume. The day of first injection is considered Day 0). Vehicle-treated animals formed large tumors by Day 12, and consequently were killed. The animals in the other groups were also killed at the same time point to evaluate the effect of the treatments on tumor pathology. […] (b) Changes in body weight were within the acceptable limits.
Later, macrophages are isolated from the tumors and analyzed the cells for expression of markers CD11b+CD206+, CD11b+MHC-II+, CD11b+CD86+ and CD11b+CD80+ on the cells using flow cytometry. […] The tumor-bearing animals are injected with three doses of either Vehicle (for control group), 45 mg/kg of free BLZ-945, 45 mg/kg of BLN101 (in a AK750 formulation), or 25 mg/kg of CSF-1 neutralizing antibody, on day 0, day 4 and day 8. First day of treatment was considered as Day 0. […] Number of metastatic nodules present in the lungs is also quantified. Lungs were harvested from the mice on day 12 following the above treatment, washed with cold PBS followed by which the number of metastatic nodules were counted. […] Later, macrophages are isolated from the tumors and analyzed the cells for expression of markers CD11b+CD206+, CD11b+MHC-II+, CD11b+CD86+ on the cells using flow cytometry. […] SIRPα is a ‘eat-me-not’ signaling, which cancer cells engage with a CD47 ligand, and prevents phagocytosis of the cancer cells. The antibody that inhibits SIRPα was conjugated to the PEG chains on the surface of the AK750 supramolecular nanoparticles. A non-specific IgG was used as controls. […] Furthermore, melanoma-bearing mice is treated with a single dose of SIRPα antibody, AK750 or the SIRPα-AK750. […]

Take `CNC(=O)c1cc(Oc2ccc3nc(NC4CCCC[C@H]4OC(=O)CCC(=O)O[C@H]4CC[C@@]5(C)C(=CC[C@H]6[C@@H]7CC[C@H](C(C)CCCC(C)C)[C@@]7(C)CC[C@@H]65)C4)sc3c2)ccn1` (stereo in doubt) [BLN101]: the “number of metastatic nodules in lungs” value is “complete inhibition of formation of metastatic nodules”.
As for `CNC(=O)c1cc(Oc2ccc3nc(N[C@@H]4CCCC[C@H]4O)sc3c2)ccn1` [BLZ-945], the “number of metastatic nodules in lungs” value was “reduction as compared to CSF-1 neutralizing antibody and the vehicle control”. Further, the “tumor growth / progression” value (45 mg/kg on day 0, day 4 and day 8) is given as “decreased tumor growth compared with vehicle-treated animals”.
